“Also recorded” adds a separate entry of the source. Like-named read-outs stand apart in the source and are kept apart here.
Key:
H3 receptor [1] = details: for binding detected: mouse brain homogenates (H3−/− by context), even at high (>100 nM) concentrations; for Kd: read-out: binding affinity, whole brain homogenates
Protocol: The mice were sacrificed by gas (CO2) and decapitated immediately. Brains were removed stored at −80° C. until use. The forebrain and the cerebellum tissue homogenized with a polytron in ice-cold 50 mM Na/K phosphate buffer, pH 7.5. The homogenates were centrifuged twice at 50,000×g for twenty minutes at 4° C.
The histamine H3 receptor binding was assayed by a modification of the method of Arrang et al. (1983) supra. Briefly, to examine inhibition curves, 0.4 ml aliquots of the suspensions (10 mg weight tissue) were incubated for sixty minutes at 25° C. with 1.5 nM [^3H]-R-alpha-MeHA. Specific binding was defined as that inhibited by 10 μM thioperamide. That reaction was terminated by addition of 5 ml of the ice-cold buffer and rapid filtration on a glass fiber filter (GF/B) pre-coated with 0.3% polyethyleneimine (Bruns et al., 1983). The filters were washed three times with 5 ml volumes of the ice-cold buffer, and the radioactivity trapped on the filters was counted in 10 ml of ScintiVerse (Fisher Scientific).

H3+/+ and H3−/− mice = assay: Step-through passive avoidance test with scopolamine-induced amnesia; format: in vivo, mouse; details: scopolamine 0.75 mg/kg i.p. before first exposure, retest next day
Excerpt: The apparatus consisted of two compartments; one (9.5×18.5×16 cm) being surrounded by a white wall and illuminated by a 60 watt lamp, and the other (9.5×18.5×16 cm) being dark surrounded by a black wall. The compartments were separated by a guillotine door (4.5 5 4.5 cm). All the mice were habituated to the dark chamber for sixty minutes prior to the test. On the first day of the passive avoidance test, wild-type and knockout mice were divided into two groups. One group of each genotype was injected with scopolamine (0.75 mg/kg, i.p., thirty minutes before the session) while the other groups were injected with biological saline, 0.9% (w/v) NaCl, ([…], i.p.). The mice were placed into the illuminated safe compartment for thirty seconds before being given free access to the dark box. The mice tended to escape into the dark compartment. When all four paws were on the grid floor of the dark compartment, a scrambled constant current foot shock (1 mA, constant voltage 120 V, 50 Hz) was delivered to the grid for one second. Then the mice were returned to their home cages. Twenty-four hours later, the procedure, without the electric shock, was repeated. The time that elapsed before each mouse entered the dark compartment was measured.

H3 receptor [2] = format: in vivo, mouse
Protocol: Individually housed animals were maintained on a 12:12 light/dark (LD) cycle except in one study when the animals were transferred to constant darkness (DD). At three months of age, animals were implanted under deep anesthesia (ketamine 100 mg/kg and xylamine 10 mg/kg administered intraperitoneally) with EEG and EMG electrodes for sleep monitoring, and intraperitoneal biotelemetry transducers for the recording of body temperature and total locomotor activity. Two weeks after surgery and habituation to the recording chamber, body temperature and locomotor activity were monitored in baseline conditions for two consecutive days. In order to test the functional activity of H3 receptors, the effects of the H3 receptor antagonist thioperamide on sleep-wake states were examined. Mice were injected with saline one day, and thioperamide the next day. Injections occurred at the onset of the light phase and sleep EEG was recorded for the next six hours. A second group of H3+/+ and H3−/− mice were placed in running wheel cages at three months of age. Locomotor activity was recorded for three weeks under LD12:12 conditions and then the animals were transferred to constant darkness for two weeks.

[3] = H3+/+ mice, two-hour post injection period

[3H]CNCCc1cnc[nH]1 [^3H-N-α-methylhistamine]
binding detected (H3 receptor [1]): No binding could be detected

NCCc1cnc[nH]1 [^3H-histamine]
binding detected (H3 receptor [1]): No binding could be detected

CN1[C@@H]2C[C@@H](OC(=O)[C@H](CO)c3ccccc3)C[C@H]1[C@@H]1O[C@@H]12 [scopolamine]
recall of aversive stimulus (amnesic effect) in passive avoidance (H3+/+ and H3−/− mice; H3+/+ mice): failed to recall the aversive stimulus
response to amnesic effect in passive avoidance (H3+/+ and H3−/− mice; H3−/− mice): decreased sensitivity; also recorded: completely unresponsive to the amnesic effects

S=C(NC1CCCCC1)N1CCC(c2cnc[nH]2)CC1 [thioperamide]
increase in waking (H3 receptor [2]; H3+/+ mice, first two hours after administration at lights on): 55%
decrease in non-rapid eye movement (NREM) sleep (H3 receptor [2]; [3]): 61%
effect on REM sleep (H3 receptor [2]; [3]): not affected
effects on sleep-wake status (H3 receptor [2]; H3−/− mice): no effects; also recorded: insensitive
